Here are results for two compounds from US20090170899A1, “Stimulators of 5-HT4 receptors and uses thereof” (priority 2004, published 2009).

Experiment [1] relates to DRN 5-HT neurons. The experiment is described as follows: Extracellular single-unit recordings of DRN 5-HT neuron mean firing rate in anaesthetized rats. To be noted: prucalopride 2.5 mg/kg, RS 67333 1.5 mg/kg; for enhancement of DRN 5-HT neuron mean firing rate vs control: s.c. osmotic minipumps; for increase of DRN 5-HT neuron firing rate with respect to controls: subacute i.p., 30 min before recordings. The experiment is classed as in vivo, rat.

The nature of experiment [2]: Forced swimming test (FST). The experiment is classed as in vivo, rat. To be noted: for change of total time of immobility in FST: Example 3, single i.p. 30 min before test, citalopram or paroxetine 10 mg/kg; for change of total time of immobility in FST / time of immobility in FST: prucalopride 2.5 mg/kg, RS 67333 1.5 mg/kg; for time of immobility in FST: 4 min observation, i.p. 30 min before test, control 88.2±7.2. An excerpt:
The “forced swimming test” (FST) is a behavioural test for rodents, which predicts the efficacy of antidepressant drugs (Porsolt et al., 1977; Lucki, 1997). […] The widespread use of this model is largely a result of its ease of use, reliability across laboratories and ability to detect a broad spectrum of antidepressant agents. The test is based on the observation that rats, following initial escape-oriented movements (climbing and swimming), develop an immobile posture when placed in an inescapable cylinder of water. If they are replaced in the same testing apparatus 24 h later, they resume this immobile posture quickly. The immobility is thought to reflect either a failure of persistence in escape-directed behavior (i.e. behavioral despair) or the development of passive behavior that disengages the animal from active forms of coping with stressful stimuli. If antidepressant treatments are given between the two exposures, the subjects will actively persist engaging in escape-directed behaviors for longer periods of time than after vehicle treatment. This will be reflected by a reduction of immobility time, and by an increase of climbing attempts. […] The combination effect of a particular 5-HT4 agonist and a SSRI may be evaluated using the FST model.
Experiments were carried out in male Sprague-Dawley rats (Charles River, St Constant, Québec). We used the FST as previously described (Porsolt et al., 1977). Briefly, the rats experienced a pretest session followed 24 hours later by a test session. For both the pretest and the test sessions, conducted under low illumination (12 lx), the rats were placed in a plastic cylindrical tank (50 cm high by 20 cm in diameter) filled with water at […], with a depth of 40 cm, for which the hind limbs could not reach the tank floor. In all experiments, the pretest was carried out for 15 min and the test for 5 min in the same tank but only the last 4 min were analyzed. Following either pretest or test sessions, rats were dried with a towel and kept warm for 30 min before returning in their home cage. A digital camera recorded on line animal's behavior during the FST, and both time of immobility and climbing attempts were counted. Citalopram hydrobromide (10 mg/kg, i.p.) or paroxetine (10 mg/kg, i.p.) and prucalopride hydrochloride (2.5 mg/kg, i.p.) or RS 67333 hydrochloride (1.5 mg/kg, i.p.) were administered simultaneously 30 minutes before the test session. Animals were divided into 4 groups: vehicle/vehicle, 5-HT4 agonist/vehicle, vehicle/SSRI and 5-HT4 agonist/SSRI. For each compound, distilled water was used as the vehicle. All drug dosages refer to the free base.
Behavioral experiments. We used the FST as previously described (Porsolt et al., 1977). Briefly, rats experienced a pre-test session followed 24 hours later by a test session. For both the pre-test and the test sessions, conducted under low illumination (12 lx), the animals were placed in a plastic cylindrical tank (50 cm high by 20 cm in diameter) filled with water at […], with a depth of 40 cm, for which the hind limbs could not reach the tank floor. In all experiments, the pre-test was carried out for 15 min and the test for 5 min in the same tank but the last 4 min only were analyzed. Prucalopride (2.5 mg/kg, i.p.) and RS 67333 (1.5 mg/kg, i.p.) were administered 30 min before the test session. Following either pre-test or test sessions, rats were dried with a towel and kept warm for 30 min before returning in their home cage. A camera coupled with a computer recorded on line animal behavior during the FST through a specialized digital interface (Videotrack, ViewPoint, Lyon, France). This interface underscored on line the subtraction of video frames. Immobility time in FST was derived from the number of frames (every 40 ms) being below a predefined threshold over FST duration.

Experiment [3] deals with CREB phosphorylation in the hippocampus. In words: CREB and pCREB immunoreactivities in hippocampal tissue after 3-day treatment. The experiment is classed as in vivo, rat. To be noted: 3 days, prucalopride 2.5, RS 67333 1.5 mg/kg/day; for pCREB/CREB ratio in hippocampal tissue: control 0.196±0.02. As to the method:
Drugs and Chemicals. […] All compounds were diluted in distilled water. All drug dosages refer to the free base. […] BrdU treatments consisted of two administrations per day (50 mg/kg, i.p. each, 8 h interval), starting from the day of minipump insertion until day 2 post-surgery.

Experiment [4] relates to DRN 5-HT neurons. To be noted: cited from earlier work; for enhancement of DRN 5-HT neuron mean firing rate: Lucas et al., 2005.
Setting [5] is: acute prucalopride 1000 μg/kg i.v., Lucas and Debonnel, 2002.

As for `CCCCN1CCC(CCC(=O)c2cc(Cl)c(N)cc2OC)CC1` [RS 67333, 1-(4-amino-5-chloro-2-methoxyphenyl)-3-(1-n-burtl-4-piperidinyl)-1-propanone], the “enhancement of DRN 5-HT neuron mean firing rate vs control” value (“enhancement … vs control” for short) is recorded as 79% in experiment [1] (3-day continuous treatment) and 59% in experiment [1] (21-day continuous treatment). Further, the “increase of DRN 5-HT neuron firing rate with respect to controls” value in experiment [1] is 66%. Besides, the “change of total time of immobility in FST” value in experiment [2] is “very similar effect”. For the same compound, the “time of immobility in FST” value in experiment [2] (Example 6) was found to be 42.7 ± 4.9 s. Besides, the “increase of climbing in FST” value in experiment [2] (Example 6, RS 67333 1.5 mg/kg i.p.) was “+94%”. Also, the “pCREB/CREB ratio in hippocampal tissue” value in experiment [3] came to 0.373±0.07. For the same compound, in experiment [4], the “enhancement of DRN 5-HT neuron mean firing rate” value is 70%.
Take `COCCCN1CCC(NC(=O)c2cc(Cl)c(N)c3c2OCC3)CC1` [prucalopride]: the “enhancement … vs control” value in experiment [1] (3-day continuous treatment) was “+50%”. For the same compound, in experiment [1] (21-day continuous treatment), the “enhancement … vs control” value is recorded as “+36%”. Also, the “increase of DRN 5-HT neuron firing rate with respect to controls” value in experiment [1] was 40%. Moreover, the “change of total time of immobility in FST” value in experiment [2] is recorded as −54%. Besides, the “time of immobility in FST” value in experiment [2] (Example 6) amounted to 43.4 ± 3.5 s. Also, in experiment [3], the “increase of pCREB/CREB ratio vs control” value was “+54%” and the “pCREB/CREB ratio in hippocampal tissue” value was 0.302±0.07. In addition, the “enhancement of DRN 5-HT neuron mean firing rate” value in experiment [4] was 40-45%. Moreover, in experiment [4] (setting [5]), the “increase of DRN 5-HT activity in responder neurons” value was “around 100%” and the “share of 5-HT neurons responding ("responders")” value is recorded as 47%.
